Results published in patent US6225307A, “Viral treatment” (priority 2000, dated 2001).

System: HIV-1 cell line, CEMIIIB
Test: Long term in vitro study, CEMIIIB cells, reverse transcriptase analysis
Type: cell-based
Design: Reverse transcriptase data: unit not given here
Method: A microtiter-based reveres transcriptase (RT) reaction is utilized (Buckheit et al (1991) AIDS Research and Human Retroviruses 7:295-302). Tritiated thymidine triphosphate (NEN)(TTP) is resuspended in distilled water at 5 Ci/ml. Poly rA and oligo dT are prepared as a stock solution which is kept at -20° C. The RT reaction buffer is prepared fresh on a daily basis and consists of 125 μl 1M EGTA, 125 μl water, 125 μl Triton X-100, 50 μl Tris (pH 7.4), 50 μl MDDT, and 40 μl 1M MgCl2. These three solutions are mixed together in a ratio of 1 part TTP, 2.5 parts poly rA:oligo dT, 2.5 parts reaction buffer and 4 parts distilled water. Ten microliters of this reaction mixture is placed in a round bottom microtiter place and 15 μl of virus containing supernatant is added and mixed. The plate is incubated at 37° C. and incubated for 60 minutes. Following reaction, the reaction volume is spotted onto filter mats, washed 6 times for 5 minutes each in a 5% sodium phosphate buffer, 2 times for 1 minute each in distilled water, 2 times for 1 minute each in 70% ethanol, and then dried. The dried filter mat is placed in a plastic sample bag, Betaplate scintillation fluid is added and the bag is heat sealed. Incorporated radioactivity is quantified utilizing a Wallac Microbeta scintillation counter.
Acute infection of most established human cell lines with HIV- I results in the eventual establishment of a constitutive virus-producing chronically infected cell line. The cells can be passaged for long periods of time in culture without loss of virus production. These cells may be utilized to evaluate the effects of anti-HIV compounds on syncytium formation or to evaluate the effects of anti-HIV compounds on levels of virus production from these cells. […] Each of the cells contains an integrated HIV genome or provirus. Chronically infected CEM, H9 and U937 cell lines have been prepared and cultured by Southern Research Institute, Frederick Md. and are available from them.
CEM-SS cells chronically infected with HIV isolate, for example SKI (CEM-SKI) are cultured in RPM1640 tissue culture medium supplemented with 10% fetal bovine serum and antibiotics. Selection is performed by culturing the cells in the presence of the compound to be tested in T25 flasks. CEM-SKI or other infected cells with no added drug are used as the control cells. Cells are allowed to grow to a density of approximately 1×10^6 cells/ml and are then passaged at a 1:10 dilution. After a period of time, usually one week intervals of drug treatment, cells are evaluated to determine if the inhibitory activity of the compound has been affected by treatment of the cells with either compounds. The drug concentration in the flask is then increased two-fold and the cells maintained as above.
The cell populations contain integrated copies of the HIV genome and constitutively produce HIV at relatively high levels or are latently infected and only produce virus after stimulation with phorbol esters, tumor necrosis factor or IL6(U1 and ACH2). Reductions in virus products were observed when quantifying supernatant reverse transcriptase activity,
Toxicity Values are measured by XTT and activity of the compound in the tests is measured by a Reverse Transcriptase analysis.
A long term in vitro study of 3-hexahydro-3-ethyl-1-methyl-2-oxo-1H-azepin-3-yl)phenyl ester of 4-chlorophenyl carbamic acid against an HIV-1 cell line, CEMIIIB was conducted at three different levels. The results with CEIIIB cells were reported at weekly intervals. The CEMIIIB is a […] of the CEMSS cell line and is a chronic HIV cell line.

CCC1(c2cccc(OC(=O)Nc3ccc(Cl)cc3)c2)CCCCN(C)C1=O (stereo not shown) [(4-chlorophenyl)-carbamic acid, 3-(hexahydro-3-ethyl-1-methyl-2-oxo-1H-azepin-3-yl) 2 phenyl ester]
Reverse transcriptase data, continued test: data remained consistent
Reverse transcriptase data (7 μg/ml, Day 4): 1643
Reverse transcriptase data (7 μg/ml, Day 11): 1294
Reverse transcriptase data (7 μg/ml, Day 18): 1521
Reverse transcriptase data (7 μg/ml, Day 25): 1725
Reverse transcriptase data (7 μg/ml, Day 32): 1239
Reverse transcriptase data (7 μg/ml, Day 39): 1341
Reverse transcriptase data (7 μg/ml, Day 46): 1694
Reverse transcriptase data (7 μg/ml, Day 53): 1287
Reverse transcriptase data (7 μg/ml, Day 60): 1631
Reverse transcriptase data (7 μg/ml, Day 67): 1245
Reverse transcriptase data (7 μg/ml, Day 71): 1483
Reverse transcriptase data (7 μg/ml, Day 74): 1502
Reverse transcriptase data (7 μg/ml, Day 88): 7383
Reverse transcriptase data (7 μg/ml, Day 95): 5512
Reverse transcriptase data (7 μg/ml, Day 102): 8512
Reverse transcriptase data (7 μg/ml, Day 109): 58104
Reverse transcriptase data (15 μg/ml, Day 4): 1526
Reverse transcriptase data (15 μg/ml, Day 11): 1168
Reverse transcriptase data (15 μg/ml, Day 18): 1241
Reverse transcriptase data (15 μg/ml, Day 25): 1361
Reverse transcriptase data (15 μg/ml, Day 32): 1168
Reverse transcriptase data (15 μg/ml, Day 39): 1162
Reverse transcriptase data (15 μg/ml, Day 46): 1084
Reverse transcriptase data (15 μg/ml, Day 53): 902
Reverse transcriptase data (15 μg/ml, Day 60): 1310
Reverse transcriptase data (15 μg/ml, Day 67): 1093
Reverse transcriptase data (15 μg/ml, Day 71): 1056
Reverse transcriptase data (15 μg/ml, Day 74): 763
Reverse transcriptase data (15 μg/ml, Day 88): 4415
Reverse transcriptase data (15 μg/ml, Day 95): 3205
Reverse transcriptase data (15 μg/ml, Day 102): 6902
Reverse transcriptase data (15 μg/ml, Day 109): 60170
Reverse transcriptase data (30 μg/ml, Day 4): 602
Reverse transcriptase data (30 μg/ml, Day 11): 265
Reverse transcriptase data (30 μg/ml, Day 18): 581
Reverse transcriptase data (30 μg/ml, Day 25): 496
Reverse transcriptase data (30 μg/ml, Day 32): 268
Reverse transcriptase data (30 μg/ml, Day 39): 381
Reverse transcriptase data (30 μg/ml, Day 46): 562
Reverse transcriptase data (30 μg/ml, Day 53): 308
Reverse transcriptase data (30 μg/ml, Day 60): 241
Reverse transcriptase data (30 μg/ml, Day 67): 301
Reverse transcriptase data (30 μg/ml, Day 71): 321
Reverse transcriptase data (30 μg/ml, Day 74): 202
Reverse transcriptase data (30 μg/ml, Day 88): 370
Reverse transcriptase data (30 μg/ml, Day 95): 299
Reverse transcriptase data (30 μg/ml, Day 102): 928
Reverse transcriptase data (30 μg/ml, Day 109): 2019
